Experimental data taken from patent US6026817A, “Method of treating the syndrome of coronary heart disease risk factors in humans” (priority 1998, dated 2000).
pIC50: −log10 of the molar value. Values joined by “and” are separate entries in the source; they are usually repeats but may differ in a detail not shown here. Equal entries are not always repeated.

How the values were obtained:
[1] = target: μ opioid receptor (Homo sapiens, UniProt P35372); test: biochemical; format: binding; details: prototype ligand DHM
Chain of μ opioid receptor (P35372 whole entry): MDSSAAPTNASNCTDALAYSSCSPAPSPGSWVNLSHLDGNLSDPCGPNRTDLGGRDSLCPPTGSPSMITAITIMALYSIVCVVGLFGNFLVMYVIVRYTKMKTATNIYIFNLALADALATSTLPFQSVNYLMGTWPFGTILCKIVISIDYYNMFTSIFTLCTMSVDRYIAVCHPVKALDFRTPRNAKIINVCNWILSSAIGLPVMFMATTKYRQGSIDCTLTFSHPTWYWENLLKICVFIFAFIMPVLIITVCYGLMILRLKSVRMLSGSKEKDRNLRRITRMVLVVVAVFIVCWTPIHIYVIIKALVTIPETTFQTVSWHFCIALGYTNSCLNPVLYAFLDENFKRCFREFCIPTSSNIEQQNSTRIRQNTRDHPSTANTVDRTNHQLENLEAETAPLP
Excerpt: (§1) For each receptor there is a prototype ligand. […] For the μ receptor the prototype ligand is DHM (dihydromorphine). For the δ receptor, the prototype ligand is DADLE (D-Ala+D-Leu-Enkephalin), and for the κ receptor, the prototype ligand is EKC (ethylketocyclazocine).

[2] = target: κ opioid receptor (Homo sapiens, UniProt P41145); test: biochemical; format: binding; details: prototype ligand EKC
Chain of κ opioid receptor (P41145 whole entry): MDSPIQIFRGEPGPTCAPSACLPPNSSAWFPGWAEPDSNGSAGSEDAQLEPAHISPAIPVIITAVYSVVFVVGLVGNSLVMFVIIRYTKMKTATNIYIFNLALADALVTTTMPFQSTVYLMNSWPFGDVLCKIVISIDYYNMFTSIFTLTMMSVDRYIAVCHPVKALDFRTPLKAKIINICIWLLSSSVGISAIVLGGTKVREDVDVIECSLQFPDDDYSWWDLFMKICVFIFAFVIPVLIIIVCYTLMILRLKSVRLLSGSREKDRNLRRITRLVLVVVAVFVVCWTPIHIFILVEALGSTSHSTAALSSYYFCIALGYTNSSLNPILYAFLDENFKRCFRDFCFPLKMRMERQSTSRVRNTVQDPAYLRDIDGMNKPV
Excerpt: as §1

[3] = test system: μ, δ, and κ opiate receptors; test: Ratios of IC50 between opiate receptors; format: binding
Excerpt: as §1
The relationship between the IC50 levels f or the μ, δ, κ opiate receptors may also be expressed in terms of a ratio.

[4] = test system: insulin resistant subject one; test: Example II: CHMMO given to an insulin resistant subject, blood values and liver enzymes; format: in vivo, human
Protocol: A insulin resistant subject was given 17-cyclopropylmethyl-3-hydroxy-14-methoxy-8β-methylmorphinan-6-one hydrochloride (CEMMO), a pure opioid antagonist, in two daily doses of 18 mg each for the duration of one week, followed by 9 mg b.i.d. for another 4 weeks.

[5] = target: δ opioid receptor (Homo sapiens, UniProt P41143); test: Receptor binding, displacement of prototype ligand DADLE
Chain of δ opioid receptor (P41143 whole entry): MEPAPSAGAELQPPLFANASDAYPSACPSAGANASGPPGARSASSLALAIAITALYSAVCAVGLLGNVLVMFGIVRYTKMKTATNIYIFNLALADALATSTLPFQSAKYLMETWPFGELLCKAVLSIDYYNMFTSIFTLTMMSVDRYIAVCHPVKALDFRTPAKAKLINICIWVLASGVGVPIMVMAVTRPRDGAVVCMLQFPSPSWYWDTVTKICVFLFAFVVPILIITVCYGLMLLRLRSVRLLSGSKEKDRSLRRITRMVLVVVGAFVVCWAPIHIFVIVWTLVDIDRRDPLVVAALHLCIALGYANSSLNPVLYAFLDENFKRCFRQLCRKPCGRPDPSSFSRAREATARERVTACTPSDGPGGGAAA
Excerpt: as §1

[6] = test system: subject one with Impaired Glucose Tolerance and borderline Type 2 Diabetes; test: Example III: Nalmefene given to a subject with Impaired Glucose Tolerance, blood values, enzymes, weight, blood pressure; format: in vivo, human; set-up: HgbA1c Δ% (reduction) / C-Peptide Δ% (reduction) / Chol. Total Δ% (reduction) / LDL-C. Δ% (reduction) / TG Δ% (reduction) / FFA Δ% (reduction): concentration or dose not given beside the values
[7] = test system: women with polycystic ovary syndrome with Acanthosis Nigrians; details: four women, period of a few days; cited from earlier work
[8] = test system: body weight; details: in vivo; cited from earlier work
[9] = test system: patients with prolactin-producing tumors of the pituitary gland; details: cited from earlier work
[10] = test system: insulin resistant subject; test: Example I: metyrosine given to an insulin resistant subject, fasting blood values; format: in vivo, human
Protocol: A insulin resistant subject was given 250 mg metyrosine twice daily.

[11] = test system: experimental brain trauma; details: in vivo; cited from earlier work
[12] = test system: adult male rats; details: intracisternal administration, conscious rats, dose related; cited from earlier work
[13] = Day 41 vs Day 1 (after 5 weeks)
[14] = Day 41 vs Day 1 (after 5 weeks), hydrochloride
[15] = Day 41 vs Day 1 (after 5 weeks), listed as CEMMO, hydrochloride
[16] = day 41 (after 5 weeks), 18 mg b.i.d. one week, then 9 mg b.i.d.
[17] = day 41, 18 mg b.i.d. one week, then 9 mg b.i.d.
[18] = 8 weeks of 250 mg twice daily vs initial
[19] = initial levels, before treatment

## CO[C@@]12[C@@H](C)CC(=O)C[C@@]13CCN(CC1CC1)[C@@H]2Cc1ccc(O)cc13.Cl [CHMMO, 17-cyclopropylmethyl-3-hydroxy-14-methoxy-8βmethylmorphinan-6-one hydrochloride]
[1]
  pIC50: 9.30
[2]
  pIC50: 9.02
[3]
  IC50 κ/ IC50 δ ratio: < 3
  IC50 κ/ IC50 μ ratio: < 3
  δ,κ,μ IC50 being within a factor of: ≤ 3
[4]; Day 1
  Weight: 82 kg
[4]; Day 1, Table III
  Alk-phos: 145 U/L
[4]; Day 41, 9.0 mg b.i.d.
  Weight: 80 kg
[4]; Day 41, 9.0 mg b.i.d., Table III
  Alk-phos: 126 U/L
[4]; Day 41 vs Day 1
  ALT Δ%: 31%
  AST Δ%: 30%
  Alk-phos Δ%: 6%
  Glucose Δ%: 14%
  LD Δ%: 27%
  Weight Δ%: 4.5%
[4]; [13]
  Chol. Total Δ% (fall): 21%
  LDL-C. Δ% (fall): 7%
  TG Δ% (fall): 42%
[4]; [14]
  FFA Δ% (fall): 22.7%
  HDL-C. Δ% (increase): 16%
  Insulin Δ% (fall): 50%
  LDL/HDL Δ% (improvement): 22%
[4]; [15]
  FFA Δ% (fall): 23%
  HDL-C. Δ% (increase): 20%
  Insulin Δ% (fall): about 50%
  LDL/HDL Δ% (improvement): 23%
[4]; after the first week, 18 mg twice daily, remained essentially at the same level
  Blood glucose: 95 mg/dL
[4]; day 1
  ALT: 29 U/L
  AST: 23 U/L
  CH. T (total cholesterol): 234 mg/dL
  FFA: 0.75 mM/L
  Gluc.: 111 mg/dL
  HDL: 30 mg/dL
  Insulin: 14 μU/ml
  LD: 162 U/L
  LDL: 156 mg/dL
  LDL/HDL: 5.2
  TG: 229 mg/dL
[4]; day 1, Table II (unit not given)
  Alk.-Phos: 145
[4]; day 41
  ALT: 20 U/L
  AST: 16 U/L
  LD: 117 U/L
[4]; [16]
  CH. T (total cholesterol): 185 mg/dL
  HDL: 36 mg/dL
  Insulin: 6 μU/ml
  LDL: 145 mg/dL
  TG: 133 mg/dL
[4]; day 41 (after 5 weeks), 18 mg b.i.d. one week, then 9 mg b.i.d., hydrochloride
  LDL/HDL: 4.0 and 4.03
[4]; day 41 (after 5 weeks), 18 mg b.i.d. one week, then 9 mg b.i.d., listed as CEMMO, hydrochloride
  LDL/HDL: 4.0
[4]; day 41, Table II (unit not given)
  Alk.-Phos: 126
[4]; [17]
  FFA: 0.58 mM/L
  Gluc.: 95 mg/dL
[4]; during the first week, 18 mg twice daily
  drop of blood glucose: 15%
[4]; end of study, after 5 weeks
  FFA: 580 μE/L
[4]; end of the study
  Weight: slight weight loss
[4]; start of study
  FFA: 754 μE/L
[5]
  pIC50: 9.10

## C=C1CC[C@@]2(O)[C@H]3Cc4ccc(O)c5c4[C@@]2(CCN3CC2CC2)[C@H]1O5 [Nalmefene, 6-desoxy-6-methylene-naltrexone]
[6]; Day 1
  ALT: 72 U/L
  AST: 31 U/L
  Alk-phos: 70 U/L
  Blood Pressure, diastolic: 100
  Blood Pressure, systolic: 136
  C-Peptide: 4.7 ng/mL
  Chol. Total: 247 mg/dL
  FFA: 0.68 mM/L
  GG-transp: 56 U/L
  Glucose: 138 mg/dL
  HDL-C.: 37 mg/dL
  HgbA1c: 6.0%
  Insulin: 27 μU/ml
  LD: 125 U/L
  LDL-C.: 140 mg/dL
  LDL/HDL: 3.78
  TG: 270 mg/dL
  Weight: 86 kg
[6]; Day 141, 0.5 mg b.i.d.
  ALT: 42 U/L
  AST: 16 U/L
  Alk-phos: 72 U/L
  Blood Pressure, diastolic: 83
  Blood Pressure, systolic: 128
  C-Peptide: 2.9 ng/mL
  Chol. Total: 193 mg/dL
  FFA: 0.41 mM/L
  GG-transp: 32 U/L
  Glucose: 120 mg/dL
  HDL-C.: 40 mg/dL
  HgbA1c: 5.4%
  Insulin: 16 μU/ml
  LD: 120 U/L
  LDL-C.: 118 mg/dL
  LDL/HDL: 2.95
  TG: 175 mg/dL
  Weight: 79 kg
[6]; Day 141 vs Day 1
  ALT Δ%: 42%
  AST Δ%: 48%
  Alk-phos Δ%: 3%
  Blood Pressure reduction, diastolic: 17 pts
  Blood Pressure reduction, systolic: 8 pts
  C-Peptide Δ% (reduction): 38%
  Chol. Total Δ% (reduction): 22%
  FFA Δ% (reduction): 40%
  GG-transp Δ%: 43%
  Glucose Δ% (reduction in fasting blood glucose): 13%
  HDL-C. Δ% (increase): 8%
  HgbA1c Δ% (reduction): 10%
  Insulin Δ%: 43%
  LD Δ%: 4%
  LDL-C. Δ% (reduction): 16%
  LDL/HDL Δ% (improvement): 22%
  TG Δ% (reduction): 35%
  Weight Δ% (reduction): 8%
[3]
  δ,κ,μ IC50 being within a factor of: ≤ 10
[7]
  elevated insulin concentrations: reduced

## O=C1CC[C@@]2(O)[C@H]3Cc4ccc(O)c5c4[C@@]2(CCN3CC2CC2)[C@H]1O5 [Naltrexone]
[8]
  reduction of body weight: inconsistent results

## CC(C)C[C@H]1C(=O)N2CCC[C@H]2[C@]2(O)O[C@](NC(=O)[C@@H]3C=C4c5cccc6[nH]c(Br)c(c56)C[C@H]4N(C)C3)(C(C)C)C(=O)N12 [bromocriptine, 2-bromo-α-ergocryptine]
[9]
  glucose tolerance: improves glucose tolerance
  insulin values: decreases insulin values toward normal

## C[C@](N)(Cc1ccc(O)cc1)C(=O)O [metyrosine, α-methyltyrosine]
[10]; 4 weeks after discontinuation
  Chol. Tot: 254 mg/dL
  FFA: 747 μE/ml
  Glucose: 122 mg/dL
  HDL: 37 mg/dL
  Insulin: 15 μU/ml
  LDL: 189 mg/dL
  LDL/HDL: 5.1
  TG: 211 mg/dL
[10]; 4 weeks following discontinuation
  all values after discontinuation of the treatment regimen: returned essentially to their pre-study levels
[10]; 8 weeks of 250 mg twice daily
  Chol. Tot: 209 mg/dL
  Glucose: 110 mg/dL
  HDL: 27 mg/dL
  Insulin: 13 μU/ml
  LDL: 134 mg/dL
  LDL/HDL: 5.0
  TG: 144 mg/dL
  free fatty acids (FFA): 575 μE/L
[10]; 8 weeks of 250 mg twice daily (Table I)
  FFA: 575 μE/ml
[10]; [18]
  decrease of HDL: 34%
  decrease of LDL: 24%
  decrease of fasting blood glucose level (BGL): 10%
  decrease of free fatty acids (FFA): 23%
  decrease of insulin: 32%
  decrease of total cholesterol (TCH): 30%
  decrease of triglycerides (TG): 31%
[10]; 14 weeks of 250 mg twice daily
  HDL: 39 mg/dL
  LDL: 119 mg/dL
  LDL/HDL: 3.1
  total reduction of LDL from the beginning of the study: 32%
[10]; initial level
  free fatty acids (FFA): 742 μE/L
[10]; [19]
  Chol. Tot: 299 mg/dL
  Glucose: 121 mg/dL
  HDL: 41 mg/dL
  Insulin: 19 μU/ml
  LDL: 176 mg/dL
  LDL/HDL: 4.3
  TG: 208 mg/dL
[10]; initial levels, before treatment (Table I)
  FFA: 742 μE/ml
[10]; week 8
  body weight: slight decrease

## Oc1ccc2c3c1O[C@H]1c4[nH]c5c(c4C[C@@]4(O)[C@@H](C2)N(CC2CC2)CC[C@]314)C[C@@]1(O)[C@H]2Cc3ccc(O)c4c3[C@@]1(CCN2CC1CC1)[C@H]5O4 [nor-binaltorphimine]
[11]
  outcome after experimental brain trauma: improves the outcome

## β-endorphin: synthetic human β-endorphin (YGGFMTSEKSQTPLVTLFKNAIIKNAYKKGE; Beta-endorphin; UniProt P01189 237-267, looked up)
[12]
  plasma concentrations of catecholamines: increased plasma concentrations of epinephrine, norepinephine, and dopamine
